The results in this text go back to ChEMBL document CHEMBL1159369, “Isolation, structure, and HIV-1 integrase inhibitory activity of Cytosporic acid, a fungal metabolite produced by a Cytospora sp” (J Nat Prod, 2003).

As usually defined, the IC50 is the concentration that inhibits the measured activity by half. A high value points to weaker potency.

Calls of active or inactive are those of the source. The calls are words filed in the database; no cut-off is given here.

Assay [1] addresses Human immunodeficiency virus type 1 integrase (Human immunodeficiency virus 1, UniProt Q7ZJM1). Kind of assay: Inhibition of HIV1 integrase strand transfer activity.
Assay [2] has as its target Human immunodeficiency virus type 1 integrase (Human immunodeficiency virus 1) (UniProt Q7ZJM1). As to the kind of experiment: Inhibition of HIV1 integrase strand transfer activity at 200 uM.

Chain of Human immunodeficiency virus type 1 integrase (Q7ZJM1 whole entry): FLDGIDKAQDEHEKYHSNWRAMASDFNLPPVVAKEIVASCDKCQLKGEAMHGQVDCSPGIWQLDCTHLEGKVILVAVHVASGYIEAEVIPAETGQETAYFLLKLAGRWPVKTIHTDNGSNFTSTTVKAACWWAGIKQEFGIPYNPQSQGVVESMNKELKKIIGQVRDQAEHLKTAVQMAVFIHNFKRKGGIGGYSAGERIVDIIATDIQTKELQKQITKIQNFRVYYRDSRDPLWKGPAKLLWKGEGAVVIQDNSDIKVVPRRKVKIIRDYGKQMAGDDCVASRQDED
Chain of Human immunodeficiency virus type 1 integrase (Human immunodeficiency virus 1) (Q7ZJM1 as listed by the source): as the sequence (Q7ZJM1 whole entry) above

Turning to `CCCCCC[C@@H](C)C1=C(O)C(=O)[C@@H]2[C@H](O)[C@H](C)C[C@H](O)[C@H]2[C@]1(C)C(=O)/C=C\O` [AUSTRALIFUNGIN], the IC50 in assay [1] was determined as 20 µM. As to `CCCC[C@@H](C)C1=C(O)C(=O)[C@@H]2C[C@H](C)C[C@H](C(=O)O)[C@H]2[C@]1(C)C(=O)CCO` [CYTOSPORIC ACID], inhibition in assay [1] was half-maximal at 20 µM (IC50). With `CCCCCC[C@@H](C)C1=C(O)C(=O)[C@@H]2[C@H](O)[C@H](C)C[C@H](O)[C@H]2[C@]1(C)C(=O)CCO`, in assay [2], the outcome was inactive.
